This passage reports IC50 results from patent US6339082B1, “Tricyclic compounds, preparation method and said method intermediates, application as medicines and pharmaceutical compositions containing same” (Aventis Pharma S.A., priority 1997, dated 2002).

What is called IC50 is the concentration that inhibits the measured activity by half. Low readings indicate greater potency in that assay, high ones weaker potency in that assay.

The target in this assay is human αvβ3 receptor (Homo sapiens, UniProt P05106+P06756). The assay can be described thus: Bond displacement Vitronectin/Vitronectin Receptor (αvβ3), binding competition test Vn/VR. The settings on record: human vitronectin coated plates, 3 hours at ambient temperature. As for the experimental part: 1—Study by the Products of the Invention of the Bond Displacement: Vitronectin/Vitronectin Receptor (αvβ3) 96-well MaxiSorp plates are coated overnight at 4° C., with 100 μl of human Vitronectin (cf Yatohgo et al. Cell., Structure and fraction 13: 281-292 (1988)) at 2 μg/ml, (Dilution in coating buffer).
The next day, the wells are emptied and the ligands (Vitronectin) are then fixed (see fixation buffer) for 1 hour at ambient temperature under gentle agitation.
The wells are washed six times (see washing buffer), then the following are added per well and in this order:
40 μl of incubation buffer, 10 μl of the dilution of the product to be tested, (the products are diluted in a 50/50 mixture of DMSO—H2O) 50 μl of human αvβ3 receptor (cf Pytela et al. Methods Enzymol (1987)144:475) (dilution in incubation buffer, adapted according to the batch of receptor and according to the ligand).
The ligand, the human αvβ3 receptor and the products to be studied are incubated for 3 hours at ambient temperature under gentle agitation.
The wells are again washed six times, then incubated for 2 hours at ambient temperature under gentle agitation, in the presence of 100 μl of 4B12-HRP antibody, anti-receptor coupled to a peroxidase (the 4B12-HRP antibody is diluted in incubation buffer. The dilution is adapted according to the batch of receptor).
The wells are then washed six times before measurement of ligand-receptor bond is carried out using a peroxidase developer kit (TMB Microwell Peroxidase Substrate System Kirkegaard: Ref. cat. 50-76-00).
This kit contains a flask A of substrate (3,3′,5,5′-tetramethylbenzidine at 0.4 g/l) and a flask B (H2O2 at 0.02% in Citrate/Citric acid buffer). Extemporaneously, one volume of A is mixture with one volume of B, then the reaction mixture is distributed at the rate of 100 μl/well. The enzymatic reaction develops in 12′ for Vitronectin/αvβ3, then its development is stopped by the addition of 100 μl of 1M phosphoric acid.
The optical density is measured at 450 nm. […]
coating buffer: 0.05 M Carbonate, NaOH pH 9.6 fixation buffer: PBS containing 0.5% of BSA (pH 7.4) washing buffer: PBS containing 0.05% of Tween 20 (pH 7.4)
Expression of the results:
The following curve is plotted: the percentage of bond of human vitronectin as a function of the logarithm of the concentration of each product tested.
For each product the IC50 is determined according to the following formula:
BO=Maximum bond in the absence of any product Bmin=Minimum bond in the presence of the highest concentration of product.

Molecules are shown by their SMILES.

`COc1c(C(=O)NCC(NC(=O)OCc2ccccc2)C(=O)O)cc2c(c1OC)C1=C(CCC1)C(=NNC1=NCCN1)CC2` (racemic) [EX. 1, 3-[[[4-[(4,5-dihydro-1H-imidazol-2-yl)hydrazono]-9,10-dimethoxy-1,2,3,4,5,6-hexahydro-8-benz[e]azulenyl]-carbonyl]amino]—N-[(phenylmethoxy)carbonyl]-DL-alanine] registered a 50% inhibitory concentration (IC50) of 16 nM.

As for `COc1c(C(=O)NCC(NC(=O)OCc2ccccc2)C(=O)O)cc2c(c1OC)C1=C(CCC1)C(=NNC1=NCCCN1)CC2` (racemic) [EX. 2, 3-[[[9,10-dimethoxy-1,2,3,4,5,6-hexahydro-4-[(1,4,5,6-tetrahydropyrimidin-2-yl)]-hydrazono]-8-benz[e]azulenyl]carbonyl]amino]-N-[(phenylmethoxy)carbonyl]-DL-alanine], the IC50 came out at 19 nM.

With `O=C(O)CC(NC(=O)c1ccc2c(c1)CCC(=NNC1=NCCN1)C1=C2CCC1)c1cccnc1` (stereo not drawn) [EX. 3, beta-[[[4-[(4,5-dihydro-1H-imidazol-2-yl) hydrazono]-1,2,3,4,5,6-hexahydro-8-benz[e]azulenyl]-carbonyl]-amino]-3-pyridine-3-yl-propanoic acid], the IC50 stood at 100 nM.

`O=C(O)CC(NC(=O)c1ccc2c(c1)CCC(=NNC1=NCCN1)C1=C2CCC1)c1ccc2c(c1)OCO2` (stereo not shown) [EX. 4] yielded a half-inhibitory concentration (IC50) of 62 nM.
